Test results reported in the supplement of paper PMC10307832.

Experiments:
Test in all cases: relative viability (nuclei count vs DMSO), 5 days (fraction); higher = more cells survive
[1] = compound: C1/C(=C\C2=CC=CS2)/C(=O)/C(=C/C3=CC=CS3)/C1 + O=C(CCCCCCC(=O)Nc1ccccc1)NO [Vorinostat] (partner 1 µM)
Method in brief: (§1)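 Dosing by pin tool came one day after lung cancer cell lines were seeded in 1536-well plates, using either one drug or a fixed anchor-drug dose plus five library-drug doses (not always all listed) in √10 steps. After 5 days, nuclei were counted on 4× images. Relative viability is treated-well nuclei count divided by vehicle-well nuclei count, and values are medians of duplicate plates.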

[2] = compound: C[C@]12O[C@H](C[C@]1(O)CO)n1c3ccccc3c3c4c(c5c6ccccc6n2c5c31)CNC4=O [Lestaurtinib] + CC(C)C[C@H](NC(=O)[C@H](Cc1ccccc1)NC(=O)c1cnccn1)B(O)O [Bortezomib] (partner 0.002 µM)
Method in brief: as §1

[3] = compound: C[C@]12O[C@H](C[C@]1(O)CO)n1c3ccccc3c3c4c(c5c6ccccc6n2c5c31)CNC4=O [Lestaurtinib] + COc1cc2c(Oc3ccc(NC(=O)C4(C(=O)Nc5ccc(F)cc5)CC4)cc3F)ccnc2cc1OCCCN1CCOCC1 [Foretinib] (partner 0.25 µM)
Method in brief: as §1

[4] = compound: C[C@]12O[C@H](C[C@]1(O)CO)n1c3ccccc3c3c4c(c5c6ccccc6n2c5c31)CNC4=O [Lestaurtinib] + Nc1nc2[nH]cc(CCc3ccc(C(=O)N[C@@H](CCC(=O)O)C(=O)O)cc3)c2c(=O)[nH]1 [Pemetrexed] (partner 0.2 µM)
Method in brief: as §1

UMC-11
relative viability ([1]; first compound 0.2 µM): 0.361 | relative viability ([1]; first compound 0.6325 µM): 0.36 | relative viability ([1]; first compound 2 µM): 0.43 | relative viability ([1]; first compound 6.325 µM): 0.26 | relative viability ([1]; first compound 20 µM): 0.394 | relative viability ([2]; first compound 0.005 µM): 0.602 | relative viability ([2]; first compound 0.01581 µM): 0.621 | relative viability ([2]; first compound 0.05 µM): 0.321 | relative viability ([2]; first compound 0.1581 µM): 0.299 | relative viability ([2]; first compound 0.5 µM): 0.171 | relative viability ([3]; first compound 0.005 µM): 1.03 | relative viability ([3]; first compound 0.01581 µM): 0.891 | relative viability ([3]; first compound 0.05 µM): 0.46 | relative viability ([3]; first compound 0.1581 µM): 0.273 | relative viability ([3]; first compound 0.5 µM): 0.175 | relative viability ([4]; first compound 0.005 µM): 0.923 | relative viability ([4]; first compound 0.01581 µM): 0.859 | relative viability ([4]; first compound 0.05 µM): 0.436 | relative viability ([4]; first compound 0.1581 µM): 0.256 | relative viability ([4]; first compound 0.5 µM): 0.176
